According to US11326207B2, “Sequencing using non-natural nucleotides” (Ultima Genomics, Inc., priority 2017, dated 2022):

Columns and labels:
Assay type in all cases: biochemical
Bst 2.0 DNA polymerase [1] = experiment: Homopolymer assays of nucleotide analogs (Example 10); settings: Natural Nucleotide C (dCTP = 1); template oligo 333, primer 221L
Procedure: (§1) A homopolymer assay was performed to investigate the effectiveness of E-dCTP and P-dUTP as nucleotide analogs of dCTP. 50 μl solutions containing a template nucleic acid molecule and primer and Bst 2.0 DNA polymerase are placed in a microplate reader and the fluorescence of the solution is measured in kinetic mode. A fluorescein attached to an oligonucleotide (indicated with a * in FIG. 7) was quenched in the substrate due to the proximity of complementary G bases. Addition of dCTP and/or dCTP analogs causes extension of the 3′ end of the primer, formation of double-stranded DNA, and unquenching of the fluorescein. The fluorescence increases with the addition of multiple nucleotides.
Additional homopolymer assays were performed according to the procedure outlined in Example 8 using different nucleotides and nucleotide analogs.
To test for dUTP or TTP incorporation, oligo 332 was used as a template and oligo 221L was used as a primer. To test for dCTP incorporation, oligo 333 was used as a template and oligo 221L was used as a primer. To test for dGTP incorporation, oligo 334 was used as a template and oligo 221L was used as a primer. To test for dATP incorporation, hairpin oligo 221 was used as both a primer and template.

Bst 2.0 DNA polymerase [2] = experiment: Homopolymer assay of dCTP analogs (Example 9); settings: rates of fluorescence, homopolymer template
Procedure: as §1

Bst DNA polymerase = biological target: T1, Bst DNA polymerase (Geobacillus stearothermophilus, UniProt P52026); experiment: Replacement of dCTP with P-dCTP, context metric (Example 10)
T1 sequence (P52026 1-876): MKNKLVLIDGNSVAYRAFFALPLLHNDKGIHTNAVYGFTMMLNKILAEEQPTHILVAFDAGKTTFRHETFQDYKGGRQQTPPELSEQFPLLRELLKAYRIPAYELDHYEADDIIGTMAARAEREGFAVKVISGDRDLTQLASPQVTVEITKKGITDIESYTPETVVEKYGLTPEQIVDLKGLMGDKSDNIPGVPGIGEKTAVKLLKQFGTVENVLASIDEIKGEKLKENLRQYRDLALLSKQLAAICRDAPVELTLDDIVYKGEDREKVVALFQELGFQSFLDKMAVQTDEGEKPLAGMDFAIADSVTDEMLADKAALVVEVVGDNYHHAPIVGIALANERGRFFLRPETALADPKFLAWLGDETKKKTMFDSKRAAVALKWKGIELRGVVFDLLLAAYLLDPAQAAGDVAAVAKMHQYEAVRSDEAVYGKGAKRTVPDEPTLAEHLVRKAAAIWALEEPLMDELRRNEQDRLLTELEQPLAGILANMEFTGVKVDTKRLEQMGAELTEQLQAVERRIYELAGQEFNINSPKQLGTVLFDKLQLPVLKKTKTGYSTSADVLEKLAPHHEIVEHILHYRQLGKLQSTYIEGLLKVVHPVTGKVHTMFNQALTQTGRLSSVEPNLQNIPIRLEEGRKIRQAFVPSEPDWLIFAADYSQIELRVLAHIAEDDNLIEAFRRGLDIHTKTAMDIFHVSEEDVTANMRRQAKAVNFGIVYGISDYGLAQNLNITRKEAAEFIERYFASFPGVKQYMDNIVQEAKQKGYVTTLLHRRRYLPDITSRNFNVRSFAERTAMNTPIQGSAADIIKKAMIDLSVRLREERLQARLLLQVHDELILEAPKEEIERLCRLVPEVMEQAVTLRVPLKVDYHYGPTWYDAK
Text: A microscope slide surface was modified with polyaminosilane to allow the attachment of 1 micron beads each containing one of three different oligonucleotide templates. To each template was bound an oligonucleotide primer and Bst DNA polymerase. Solutions of mixtures of labeled and unlabeled nucleotide, of one type at a time, were exposed to the surface, followed by a wash solution. The fluorescence of labeled beads was detected and quantitated. The fluorescence label was cleaved by treatment with tris(hydroxypropyl)phosphine (THP) after each step.
Context was measured for each experiment. Context is given by the context metric, C, which is defined as the (maximum-minimum signal)/average signal.
Experiments were performed replacing dCTP with P-dCTP for three different oligonucleotide templates.

rate of incorporation compared with natural dCTP (Bst 2.0 DNA polymerase [2]) | Compound | Relative Rate in Homopolymer Assay (Bst 2.0 DNA polymerase [1]) | C (context metric) (Bst DNA polymerase; Oligonucleotide template 1) | C (context metric) (Bst DNA polymerase; Oligonucleotide template 2) | C (context metric) (Bst DNA polymerase; Oligonucleotide template 3)
much faster than that of natural dCTP | C#Cc1cn([C@H]2C[C@H](O)[C@@H](COP(=O)(O)OP(=O)(O)OP(=O)(O)O)O2)c(=O)nc1N [E-dCTP, 5-ethynyl-2′-deoxycytidine 5′triphosphate] | >1 |  |  | 
 | Nc1ccn([C@H]2C[C@H](O)[C@@H](COP(=O)(O)OP(=O)(O)OP(=O)(O)O)O2)c(=O)n1 [dCTP, deoxycytidine triphosphate] | 1 | 0.85 | 0.72 | 0.70
